Experimental data as given in publication PMC5780470, “Copper(I)-binding properties of de-coppering drugs for the treatment of Wilson disease. α-Lipoic acid as a potential anti-copper agent” (Scientific Reports, 2018).

Target: MT2A (MT2, Cu10MT, Cu10MT2) (Oryctolagus cuniculus, UniProt P18055)
Assay: ESI-MS demetallation of Cu10MT, Hill fit
Format: binding
Conditions: C50 for Cu(I) extraction from 3 uM Cu10MT, not a protein affinity; 10 mM DTT, 20 mM ammonium acetate, pH 7.3, 25 °C; all CuMT-TTM complexes counted; no ternary complexes stated; read-out: C50 (mM) for Cu1Cox17
From the text: ESI-MS demetallation of Cu10MT, Hill fit on MT2A (MT2, Cu10MT, Cu10MT2)

Sequence of MT2A (MT2, Cu10MT, Cu10MT2) (P18055 whole entry): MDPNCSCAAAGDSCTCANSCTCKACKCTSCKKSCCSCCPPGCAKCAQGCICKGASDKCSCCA

An IC50 of 0.772 ± 0.087 mM was found for `CCN(CC)C(=S)S` [DETC, diethyl dithiocarbamate] in this work.
